Test results reported in patent US20240408098A1, “COMBINATIONS OF KRAS G12D INHIBITORS WITH PI3Ka INHIBITORS AND RELATED METHODS OF TREATMENT” (MIRATI THERAPEUTICS, INC., priority 2021, published 2024).

Key:
Type in all cases: in vivo
[1] = test system: AsPC-1 pancreatic cancer cell line; experiment: AsPC-1 xenograft in nude/nude mice, average tumor volumes; details: for tumor growth inhibition: single agent; for Average Tumor Volumes: nude/nude mice, 15 mg/kg QD
Description: (§1) Immunocompromised nude/nude mice are inoculated in the right hind flank with cells harboring a KRas G12D mutation. When tumor volumes reach between 200-400 mm^3 in size, the mice are divided into four to five groups of 5 mice each. The first group is administered vehicle only. […] The fourth group is administered the single agent dose of the KRas G12D inhibitor using the twice daily for 2 sequential days followed by 5 days off schedule in combination with the single agent dose of Irinotecan. The treatment period varies from cell line to cell line but typically is between 15-22-days. Tumor volumes are measured using a caliper every two-three days and tumor volumes are calculated by the formula: […].
(§2) 20 to 25 nude/nude mice per study were inoculated in the right hind limb with 5×10^6 LS180 cells, AsPC-1 cells, GP2D cells, or Panc 02.03 cells. When tumor volumes reached ˜200 mm3-400 mm3 (study day 0) 5 mice in each of the groups were administered i.p. vehicle only (10% captisol in 50 mM citrate buffer pH 5.0), 30 mg/kg of Kras G12D inhibitor MRTX1133 (10% captisol in 50 mM citrate buffer, pH 5.0) either on the twice daily schedule or the twice daily for 2 consecutive days followed by 5 days off schedule, 15 mg/kg once daily of the BYL719 (0.5% methylcellulos) PI3Ka inhibitor, or 30 mg/kg of Kras G12D inhibitor on either schedule and BYL719. Tumor volumes, measured at pre-specified days, for the five mice per group were averaged and are reported for LS180, AsPC-1, GP2D, and Panc 02.03 in Tables 1, 2, 3, and 4, respectively.
30 nude/nude mice were inoculated with AsPC-1 cells in the hind right flank. When the tumors reached ˜300 mm^3 six treatment groups were established with 5 mice per group.

[2] = test system: GP2D colorectal cancer cell line; experiment: GP2D xenograft in nude/nude mice, average tumor volumes
Description: as §1
as §2, with “respectively. […]” for “respectively.”

[3] = test system: PANC0203 pancreatic cancer cell line; experiment: Panc 02.03 xenograft in nude/nude mice, average tumor volumes; details: 15 mg/kg QD
Description: as §1, §2
20 nude/nude mice were inoculated with Panc 02.03 cells in the hind right flank. When the tumors reached ˜300 mm^3 four treatment groups were established with 5 mice per group.

[4] = test system: LS180 colon cancer cell line; experiment: LS180 xenograft in nude/nude mice, average tumor volumes; details: for Average Tumor Volumes: nude/nude mice, 15 mg/kg QD
Description: as §1, §2
25 nude/nude mice were inoculated with LS180 cells in the hind right flank. When the tumors reached ˜250 mm^3 five treatment groups were established with 5 mice per group.

Cc1nc(NC(=O)N2CCC[C@H]2C(N)=O)sc1-c1ccnc(C(C)(C)C(F)(F)F)c1 [BYL719, (2S)-N1-[4-Methyl-5-[2-(2,2,2-trifluoro-1,1-dimethylethyl)-4-pyridinyl]-2-thiazolyl]-1,2-pyrrolidinedicarboxamide]
tumor growth inhibition ([1]; 15 mg/kg once daily, Day 34): 0% | Average Tumor Volumes ([1]; Study Day 1): 331.29 mm^3 | Average Tumor Volumes ([1]; Study Day 6): 429.172 mm^3 | Average Tumor Volumes ([1]; Study Day 9): 473.138 mm^3 | Average Tumor Volumes ([1]; Study Day 13): 531.394 mm^3 | Average Tumor Volumes ([1]; Study Day 16): 580.446 mm^3 | Average Tumor Volumes ([1]; Study Day 20): 688.564 mm^3 | Average Tumor Volumes ([1]; Study Day 23): 742.98 mm^3 | Average Tumor Volumes ([1]; Study Day 27): 918.424 mm^3 | Average Tumor Volumes ([1]; Study Day 30): 1283 mm^3 | Average Tumor Volumes ([1]; Study Day 34): 1622 mm^3 | Average Tumor Volumes ([2]; 15 mg/kg QD, Study Day 1): 307.604 mm^3 | Average Tumor Volumes ([2]; 15 mg/kg QD, Study Day 7): 369.474 mm^3 | Average Tumor Volumes ([2]; 15 mg/kg QD, Study Day 10): 395.68 mm^3 | Average Tumor Volumes ([2]; 15 mg/kg QD, Study Day 14): 467.526 mm^3 | Average Tumor Volumes ([2]; 15 mg/kg QD, Study Day 17): 546.962 mm^3 | Average Tumor Volumes ([2]; 15 mg/kg QD, Study Day 21): 681.056 mm^3 | Average Tumor Volumes ([2]; 15 mg/kg QD, Study Day 26): 901.144 mm^3 | Average Tumor Volumes ([2]; 15 mg/kg QD, Study Day 28): 1053.732 mm^3 | Average Tumor Volumes ([2]; 15 mg/kg QD, Study Day 31): 1102.87 mm^3 | Average Tumor Volumes ([2]; 15 mg/kg QD, Study Day 35): 1202.89 mm^3 | Average Tumor Volumes ([3]; Study Day 1): 330.188 mm^3 | Average Tumor Volumes ([3]; Study Day 4): 341.414 mm^3 | Average Tumor Volumes ([3]; Study Day 8): 367.35 mm^3 | Average Tumor Volumes ([3]; Study Day 11): 487.664 mm^3 | Average Tumor Volumes ([3]; Study Day 15): 572.82 mm^3 | Average Tumor Volumes ([3]; Study Day 18): 680.306 mm^3 | Average Tumor Volumes ([3]; Study Day 22): 774.992 mm^3 | tumor growth inhibition ([4]; 15 mg/kg once daily, single agent, Day 15): 44% | Average Tumor Volumes ([4]; Study Day 1): 273.184 mm^3 | Average Tumor Volumes ([4]; Study Day 4): 501.45 mm^3 | Average Tumor Volumes ([4]; Study Day 8): 799.338 mm^3 | Average Tumor Volumes ([4]; Study Day 11): 1016.09 mm^3 | Average Tumor Volumes ([4]; Study Day 15): 1225.468 mm^3

C#Cc1c(F)ccc2cc(O)cc(-c3ncc4c(N5C[C@H]6CC[C@@H](C5)N6)nc(OC[C@@]56CCCN5C[C@H](F)C6)nc4c3F)c12 [MRTX1133, 4-(4-((1R,5S)-3,8-diazabicyclo[3.2.1]octan-3-yl)-8-fluoro-2-(((2R,7aS)-2-fluorohexahydro-1H-pyrrolizin-7a-yl)methoxy)pyrido[4,3-d]pyrimidin-7-yl)-5-ethynyl-6-fluoronaphthalen-2-ol]
tumor growth inhibition ([1]; 30 mg/kg BID twice weekly, day 34): 43% | Average Tumor Volumes ([2]; 30 mg/kg BID Daily i.p., Study Day 1): 300.778 mm^3 | Average Tumor Volumes ([2]; 30 mg/kg BID Daily i.p., Study Day 7): 263.132 mm^3 | Average Tumor Volumes ([2]; 30 mg/kg BID Daily i.p., Study Day 10): 237.628 mm^3 | Average Tumor Volumes ([2]; 30 mg/kg BID Daily i.p., Study Day 14): 221.728 mm^3 | Average Tumor Volumes ([2]; 30 mg/kg BID Daily i.p., Study Day 17): 221.788 mm^3 | Average Tumor Volumes ([2]; 30 mg/kg BID Daily i.p., Study Day 21): 242.56 mm^3 | Average Tumor Volumes ([2]; 30 mg/kg BID Daily i.p., Study Day 26): 254.57 mm^3 | Average Tumor Volumes ([2]; 30 mg/kg BID Daily i.p., Study Day 28): 307.03 mm^3 | Average Tumor Volumes ([2]; 30 mg/kg BID Daily i.p., Study Day 31): 333.20 mm^3 | Average Tumor Volumes ([2]; 30 mg/kg BID Daily i.p., Study Day 35): 358.75 mm^3
